Entries after “also recorded” stand apart in the source; their conditions may differ.
Legend:
in vivo = experiment: in vivo; design: species or system rats
Method: In another study designed to explore the differences between pimecrolimus and FK506 and to determine whether these differences might be associated with a different tissue distribution, the exposure to pimecrolimus and FK506 in various organs after oral administration were measured. Animals received 2 oral doses of 25 mg/kg in an interval of 2 hours. […] Pimecrolimus was found consistently to have a higher skinlblood concentration ratio than FK506 (2 hours: 7.3 vs. 2.8; 6 hours: 13 vs. 1.6; 24 hours: 36 vs. 6.0). The AUC0-24h in skin calculated for pimecrolimus was twice as high as with FK506.
These distribution characteristics are relevant not only for oral, but also for topical application, as the compound enters systemic circulation after permeation through the skin.

[1] = system: allergic contact dermatitis (ACD); experiment: Rat ACD model; format: in vivo
blood cells = details: 30 mg b.i.d. oral
Method: Pimecrolimus was evaluated as treatment for psoriasis using an oral dose of 60 mg (30 mg b.i.d) during a 4-week clinical study. The cohort included 10 patients; 8 received the treatment and 2 received a placebo. Blood samples were collected before the first administration to establish the gene expression baseline and on days 13 or 14 after treatment with pimecrolimus or placebo and submitted to gene expression analysis in order to gain insights into the mechanisms of action of the compound.
The RNA from blood samples drawn from each patient in the study was extracted and tested on individual DNA microarrays, thus allowing, for each patient, a comparison of gene expression before and after pimecrolimus treatment. […] Genes that were consistently modulated were sorted in functional categories.

[2] = system: eosinophil influx into the lungs; experiment: Aeroallergen induced eosinophil influx into the lungs of sensitized mice; format: in vivo; details: oral administration
Excerpt: Direct evidence on the efficacy on pimecrolimus in asthma is provided by studies showing the effect on lung eosinophilia rats. One study looked at the inhibitory effect of pimecrolimus on the aeroallergen induced eosinophil influx into the lungs of sensitized mice.

[3] = Pharmacokinetics after multiple oral administrations to psoriatic patients for 28 days; format: in vivo, human
Method: Table 4. Summary of Cmax and AUCτ Following Multiple Oral Administrations of Pimecrolimus to Psoriatic Patients for 28 Days
In this study pimecrolimus was rapidly absorbed with a median tmax across all the dose groups and collection days of between 0.8 and 2.0 hours. […] There was no effect of age or weight on the apparent clearance of pimecrolimus.

[4] = system: systemic immune responses; experiment: Models of systemic immunosuppression (graft-versus-host reaction, antibody formation to sheep red blood cells, kidney transplantation); format: in vivo, rats; details: transplantation and vaccination models
Excerpt: Pimecrolimus (also called ASM981 and ELIDEL®) is an ascomycin macrolactam-derivative with anti-inflammatory properties, chemical name is 33-epichloro-33-desoxy-ascomycin. Pimecrolimus is an ascomycin macrolactam-derivative developed originally for topical and oral treatment of inflammatory skin diseases such as atopic dermatitis and psoriasis. Pimecrolimus binds to macrophilin-12 and inhibits the Ca-dependent phosphatase calcineurin. As a consequence, it inhibits T cell activation and blocks the transcription and release of both Th1 and Th2 inflammatory cytokines. […] Tachyphylaxis has not been observed.

[5] = Clinical study of oral pimecrolimus in psoriasis patients (efficacy and safety)
Method: A clinical study was initiated with an oral formulation of pimecrolimus to treat psoriatic patients. Pimecrolimus was evaluated as treatment for psoriasis using an oral dose of 60 mg (30 mg b.i.d) during a 4-week clinical study. The cohort included 10 patients; 8 received the treatment and 2 received a placebo.
The dose used in the study was 60 mg/day, given as 30 mg b.i.d. To make this dose the 20 mg tablets were cut in half using a special cutter (Tablettenteiler NR.96) so as to obtain 30 mg of pimecrolimus or a matched amount of placebo.

[6] = format: in vitro ADME, human
Excerpt: Pimecrolimus, when applied topically, permeates less through human (and animal) skin than, for example, FK506 and corticosteroids by factors of 9 and 60-120, respectively, indicating a lower potential to enter the systemic circulation and thus to exert systemic side effects. As is well-known, glucocorticoids are non-selective agents and are therefore associated with many systemic actions and a wide variety of side effects, whether applied topically or systemically. This is in contrast to pimecrolimus.

[7] = 20 mg b.i.d. oral, Day 13, Mean ± SD, 18720 min
[8] = 20 mg b.i.d. oral, Day 28, Mean ± SD, 40320 min
[9] = human, blood, 5 mg q.d. oral, Day 1, Mean ± SD
[10] = human, blood, 5 mg q.d. oral, Day 13, Mean ± SD
[11] = human, blood, 5 mg q.d. oral, Day 28, Mean ± SD
[12] = human, blood, 10 mg q.d. oral, Day 1, Mean ± SD
[13] = human, blood, 10 mg q.d. oral, Day 28, Mean ± SD
[14] = human, blood, 20 mg q.d. oral, Day 13, Mean ± SD
[15] = human, blood, 20 mg q.d. oral, Day 28, Mean ± SD
[16] = human, blood, 30 mg b.i.d. oral, Day 1, Mean ± SD
[17] = human, blood, 30 mg b.i.d. oral, Day 13, Mean ± SD
[18] = human, blood, 30 mg b.i.d. oral, Day 28, Mean ± SD

With `CC[C@@H]1/C=C(\C)C[C@H](C)C[C@H](OC)[C@H]2O[C@@](O)(C(=O)C(=O)N3CCCC[C@H]3C(=O)O[C@H](/C(C)=C/[C@@H]3CC[C@H](Cl)[C@H](OC)C3)[C@H](C)[C@@H](O)CC1=O)[C@H](C)C[C@@H]2OC` [pimecrolimus, 33-epichloro-33-desoxy-ascomycin] the “AUC0-24h in skin compared with FK506” value (in vivo; 2 oral doses of 25 mg/kg) was “twice as high”, the “exposure in all other tissues, including blood, lymph nodes and kidney, compared with FK506” value (in vivo; 2 oral doses of 25 mg/kg) was “lower” and the Kp at 2 h (in vivo; rat, skin, 2 oral doses of 25 mg/kg in an interval of 2 hours, 2 hours after the last dosing, read-out: skinlblood concentration ratio) was 7.3. The Kp at 6 h (in vivo; rat, skin, 2 oral doses of 25 mg/kg in an interval of 2 hours, 6 hours after the last dosing, read-out: skinlblood concentration ratio) was 13, the Kp at 24 h (in vivo; rat, skin, 2 oral doses of 25 mg/kg in an interval of 2 hours, 24 hours after the last dosing, read-out: skinlblood concentration ratio) was 36 and the “efficacy compared with FK506” value ([1]; oral, same doses, rat ACD model) was “superior”. The “efficacy relative to oral CyA” value ([1]; rat ACD (12.5 mg/kg pimecrolimus similar to 50 mg/kg CyA)) was 4 fold, the “toxic effect in the expression profile” value (blood cells) was “No obvious toxic effect” and the “expression of genes involved in asthma and IBD (RANTES, GALECTIN-3, Thromboxane A2 receptor, Glutathione peroxidase)” value (blood cells; days 13 or 14 vs baseline) was “specifically and significantly down-regulated”. The “expression of inflammatory mediators (Leukotriene A4 hydrolase, prostaglandin endoperoxide synthase)” value (blood cells; days 13 or 14 vs baseline) was “strongly down regulate”, the “eosinophil count in the lung and eosinophil peroxidase activity” value [2] was “able to reduce” and the “AUCτ,b” value ([3]; 20 mg b.i.d. oral, Day 1, Mean ± SD, 1440 min) was 139.9 ± 39.2 ng·h/mL. For the same molecule, the “AUCτ,b” value [3, 7] was 259.6 ± 122.6 ng·h/mL, the “Cmax,b” value [3, 7] was 54.7 ± 36.3 ng/mL and the “AUCτ,b” value [3, 8] was 229.5 ± 90.9 ng·h/mL. For the same molecule, the “Cmax,b” value [3, 8] was 41.7 ± 16.5 ng/mL, the “mean AUC at steady-state over 24 hours” value ([3]; 30 mg b.i.d., day 28, calculated assuming identical AUCτ for morning and evening doses) was ~562 ng·h/mL and the AUC at 24 h ([3]; human, blood, po, 30 mg b.i.d., day 13, calculated assuming identical AUCτ for morning and evening doses, read-out: mean AUC at steady-state over 24 hours) was ~590 ng·h/mL. It also gave a Tmax ([3]; human, blood, po, across all the dose groups and collection days, read-out: median tmax) of 0.8 to 2 h, a concentration at 504 h ([3]; human, blood, po, day 21 of the 30 mg BID dose schedule, read-out: highest median blood trough concentration) of 18 ng/mL and a half-life ([3]; human, blood, po, recorded after the final dose, read-out: terminal half-life) of 50 to 100 h. The AUC tau at 24 h [3, 9] was 23.3 ± 13 ng·h/mL, the Cmax at 24 h [3, 9] was 8.7 ± 2.3 ng/mL and the AUC tau at 312 h [3, 10] was 44.5 ± 18.2 ng·h/mL. For the same molecule, the Cmax at 312 h [3, 10] was 9.7 ± 2.5 ng/mL, the AUC tau at 672 h [3, 11] was 35.5 ± 15.8 ng·h/mL and the Cmax at 672 h [3, 11] was 9.9 ± 4.8 ng/mL. For the same molecule, the AUC tau at 24 h [3, 12] was 80.6 ± 31.4 ng·h/mL, the Cmax at 24 h [3, 12] was 25.9 ± 8.5 ng/mL and the Cmax at 312 h ([3]; human, blood, 10 mg q.d. oral, Day 13, Mean ± SD) was 21.8 ± 7.9 ng/mL. It also gave an AUC tau at 672 h [3, 13] of 90.9 ± 35.4 ng·h/mL, a Cmax at 672 h [3, 13] of 24 ± 9.2 ng/mL and a Cmax at 24 h ([3]; human, blood, 20 mg b.i.d. oral, Day 1, Mean ± SD) of 41.3 ± 16 ng/mL. For the same molecule, the AUC tau at 24 h ([3]; human, blood, 20 mg q.d. oral, Day 1, Mean ± SD) was 173 ± 56 ng·h/mL, the AUC tau at 312 h [3, 14] was 253 ± 40.1 ng·h/mL and the Cmax at 312 h [3, 14] was 55.3 ± 21.4 ng/mL. For the same molecule, the AUC tau at 672 h [3, 15] was 258 ± 65.9 ng·h/mL, the Cmax at 672 h [3, 15] was 58.3 ± 25.4 ng/mL and the AUC tau at 24 h [3, 16] was 206 ± 64 ng·h/mL. For the same molecule, the Cmax at 24 h [3, 16] was 49.1 ± 21.6 ng/mL, the AUC tau at 312 h [3, 17] was 295 ± 60.1 ng·h/mL and the Cmax at 312 h [3, 17] was 54.5 ± 27 ng/mL. For the same molecule, the AUC tau at 672 h [3, 18] was 281 ± 32.8 ng·h/mL, the Cmax at 672 h [3, 18] was 41.1 ± 8.4 ng/mL and the AUC(0-t) at 24 h ([3]; human, blood, psoriatic patients, oral, read-out: AUC(0-24) associated with a significant clinical response in the target epithelial tissue) was ≥ 400 ng·h/mL. For the same molecule, the “Trough concentrations associated with a significant clinical response in the target epithelial tissue” value ([3]; human, in vivo, po) was ≥ 7 ng/mL, the “systemic immunosuppressive effect compared to CyA and FK506” value [4] was “only a low potential to impair systemic immune responses; also recorded: minimal immunosuppressive effects” and the “clinical effect on psoriasis” value ([5]; oral 60 mg (30 mg b.i.d), 4-week study, 8 treated patients) was “reduction of psoriasis”. For the same molecule, the tolerability in man ([5]; oral dosing up to 60 mg (or 30 mg b.i.d.) over 28 days) was “well-tolerated”, the “factor by which it permeates less through skin than FK506” value [6] was 9 and the “factor by which it permeates less through skin than corticosteroids” value [6] was 60-120.
